# Test system: BuGH3MLG
# Experiment: PAHBAH reducing sugar assay, […] nm
# Type: biochemical, Bacteroides uniformis
# Details: 30 min hydrolysis
row,Km [µM],SMILES
1,241 ± 16.2,OC[C@H]1O[C@@H](OC[C@H]2OC(O)[C@H](O)[C@@H](O)[C@@H]2O)[C@H](O)[C@@H](O)[C@@H]1O (stereo partly shown) [Gentiobiose]
2,9.9 ± 1.1,OC[C@H]1O[C@@H](O[C@@H]2[C@@H](O)[C@H](O[C@@H]3[C@@H](O)[C@H](O[C@H]4[C@H](O)[C@@H](CO)OC(O)[C@@H]4O)O[C@H](CO)[C@H]3O)O[C@H](CO)[C@H]2O)[C@H](O)[C@@H](O)[C@@H]1O (stereo partly shown) [Laminaritetrose]
3,26.1 ± 5.5,OC[C@H]1O[C@@H](O[C@H]2[C@H](O)[C@@H](O)[C@H](O[C@H]3[C@H](O)[C@@H](O)C(O)O[C@@H]3CO)O[C@@H]2CO)[C@H](O)[C@@H](O)[C@@H]1O (stereo partly shown) [Cellotriose]
4,56.9 ± 9,OC[C@H]1O[C@@H](O[C@H]2[C@H](O)[C@@H](O)[C@H](O[C@H]3[C@H](O)[C@@H](O)[C@H](O[C@H]4[C@H](O)[C@@H](O)C(O)O[C@@H]4CO)O[C@@H]3CO)O[C@@H]2CO)[C@H](O)[C@@H](O)[C@@H]1O (stereo partly shown) [Cellotetraose]
5,7.5 ± 0.5,OC[C@H]1O[C@@H](O[C@@H]2[C@@H](O)[C@H](O[C@H]3[C@H](O)[C@@H](CO)OC(O)[C@@H]3O)O[C@H](CO)[C@H]2O)[C@H](O)[C@@H](O)[C@@H]1O (stereo partly shown) [Laminaritriose]
6,41.3 ± 7,"OC[C@H]1O[C@@H](O[C@H]2[C@H](O)[C@@H](O)[C@H](O[C@H]3[C@H](O)[C@@H](CO)OC(O)[C@@H]3O)O[C@@H]2CO)[C@H](O)[C@@H](O)[C@@H]1O (stereo partly drawn) [β-D-cellobiosyl-glucose, β-d-Glc^iii(1→4)β-d-Glc^ii(1→3)-d-Glc^i]"
7,28.2 ± 6.2,"OC[C@H]1O[C@@H](O[C@H]2[C@H](O)[C@@H](O)[C@H](O[C@H]3[C@H](O)[C@@H](O)[C@H](O[C@H]4[C@H](O)[C@@H](CO)OC(O)[C@@H]4O)O[C@@H]3CO)O[C@@H]2CO)[C@H](O)[C@@H](O)[C@@H]1O (stereo partly drawn) [G4G4G3G, β-d-Glc^iv(1→4)β-d-Glc^iii(1→4)β-d-Glc^ii(1→3)-d-Glc^i]"
8,7.1 ± 1.2,OC[C@H]1O[C@@H](O[C@H]2[C@H](O)[C@@H](CO)OC(O)[C@@H]2O)[C@H](O)[C@@H](O)[C@@H]1O (stereo partly shown) [Laminaribiose]
9,7.4 ± 1.24,OC[C@H]1O[C@@H](O[C@H]2[C@H](O)[C@@H](O)C(O)O[C@@H]2CO)[C@H](O)[C@@H](O)[C@@H]1O (stereo partly shown) [Cellobiose]

# Test system: BuGH3MLG
# Experiment: p-nitrophenol release, absorbance […] nm
# Type: biochemical, Bacteroides uniformis
# Details: sodium phosphate pH 5.7, 37 °C
row,Km [µM],SMILES
1,2900 ± 700,CC(=O)N[C@H]1[C@H](Oc2ccc([N+](=O)[O-])cc2)O[C@H](CO)[C@@H](O)[C@@H]1O [p-nitrophenyl-N-acetyl glucosaminide]
2,880 ± 160,O=[N+]([O-])c1ccc(O[C@@H]2O[C@H](CO)[C@@H](O)[C@H](O[C@@H]3O[C@H](CO)[C@@H](O)[C@H](O)[C@H]3O)[C@H]2O)cc1 [p-Nitrophenyl β-D-laminaribioside]
3,530 ± 120,O=[N+]([O-])c1ccc(O[C@@H]2O[C@H](CO)[C@@H](O)[C@H](O)[C@H]2O)cc1 [p-Nitrophenyl-β-D-glucopyranoside]
4,640 ± 90,O=[N+]([O-])c1ccc(O[C@@H]2O[C@H](CO)[C@@H](O[C@@H]3O[C@H](CO)[C@@H](O)[C@H](O)[C@H]3O)[C@H](O)[C@H]2O)cc1 [p-Nitrophenyl β-D-cellobioside]
